Laboratory results published in ChEMBL document CHEMBL1287781, “Novel lipophilic 7H-pyrido[1,2,3-de]-1,4-benzoxazine-6-carboxylic acid derivatives as potential antitumor agents: improved synthesis and in vitro evaluation” (Bioorg Med Chem, 2010).
The source made the active and inactive calls. No cut-off for these calls is given here.

Key:
[1] = Chemical stability of the compound in phosphate buffer at pH 7.4 after 7 days; assay type: physicochemical; details: read-out: Stability
[2] = Anticancer activity against human U373MG after 5 days by MTT assay; assay type: functional, cell-based, U-373MG ATCC; details: U373 MG, 120 h
[3] = test system: A549; assay: Anticancer activity against human A549 after 5 days by MTT assay; assay type: functional, cell-based; details: A549, 120 h
[4] = test system: PC-3; assay: Anticancer activity against human PC3 after 5 days by MTT assay; assay type: functional, cell-based; details: PC-3, 120 h
[5] = test system: LoVo; assay: Anticancer activity against human LoVo cells after 5 days by MTT assay; assay type: functional, cell-based; details: 120 h
[6] = test system: MCF7; assay: Anticancer activity against human MCF7 after 5 days by MTT assay; assay type: functional, cell-based; details: MCF7, 120 h
[7] = test system: U-373MG ATCC; assay: Antimigratory activity against human U373MG at 0.1 uM after 6 days by phase-contrast microscopy; assay type: functional, cell-based
[8] = test system: U-373MG ATCC; assay: Antimigratory activity against human U373MG at 1 uM after 6 days by phase-contrast microscopy; assay type: functional, cell-based
[9] = test system: U-373MG ATCC; assay: Anticancer activity against human U373MG after 3 to 5 days by MTT assay; assay type: functional, cell-based
[10] = test system: A549; assay: Anticancer activity against human A549 after 3 to 5 days by MTT assay; assay type: functional, cell-based
[11] = test system: PC-3; assay: Anticancer activity against human PC3 after 3 to 5 days by MTT assay; assay type: functional, cell-based
[12] = test system: LoVo; assay: Anticancer activity against human LoVo cells after 3 to 5 days by MTT assay; assay type: functional, cell-based
[13] = test system: MCF7; assay: Anticancer activity against human MCF7 after 3 to 5 days by MTT assay; assay type: functional, cell-based
[14] = Toxicity in ip dosed B6D2F1 mouse after 28 days; assay type: organism-based; details: in vivo
[15] = test system: A549; assay: Anticancer activity against human A549 by sulforhodamine B assay; assay type: functional, cell-based
[16] = test system: MCF7; assay: Anticancer activity against human MCF7 by sulforhodamine B assay; assay type: functional, cell-based

Row | SMILES | remaining at 168 h [1] [%] | IC50 [3] [µM] | IC50 [4] [µM] | IC50 [5] [µM] | IC50 [6] [µM] | IC50 [15] [µM] | IC50 [16] [µM] | IC50 [2] [µM] | Activity [7] | Activity [8] | Activity [9] | Activity [10] | Activity [11] | Activity [12] | Activity [13] | MTD at 672 h [14] [mg/kg]
1 | CCCCCCCCCCCC(=O)OCOC(=O)c1cn2c3c(c(N4CCN(C)CC4)c(F)cc3c1=O)OC[C@@H]2C | > 91 | 65 | 86 | 0.3 | 0.3 |  |  | 0.2 | inactive | inactive |  |  |  |  |  | 
2 | CCCCNC(=O)c1cn2c3c(c(N4CCN(C)CC4)c(F)cc3c1=O)OC[C@@H]2C | > 97 | 46 | 30 | 24 | 55 |  |  | 113 |  |  |  |  |  |  |  | 
3 | CCCCCCCCCCNC(=O)c1cn2c3c(c(N4CCN(C)CC4)c(F)cc3c1=O)OC[C@@H]2C |  | 3 | 3 | 3 | 5 |  |  | 3 |  |  |  |  |  |  |  | 
4 | CCCCCCCCCCCCCCCC(=O)OCOC(=O)c1cn2c3c(c(N4CCN(C)CC4)c(F)cc3c1=O)OC[C@@H]2C | > 93 | 46 | 56 | 6 | 8 |  |  | 4 |  |  |  |  |  |  |  | 
5 | C[C@H]1COc2c(N3CCN(C)CC3)c(F)cc3c(=O)c(C(=O)O)cn1c23 [LEVOFLOXACIN] |  | 70 | 238 | 67 | 622 |  |  | 188 |  |  | Dose-dependent effect | Dose-dependent effect | Dose-dependent effect | Dose-dependent effect | Dose-dependent effect | 
6 | CCCCCCCCCC(=O)OCOC(=O)c1cn2c3c(c(N4CCN(C)CC4)c(F)cc3c1=O)OC[C@@H]2C |  | > 1000 | > 1000 | > 1000 | > 1000 |  |  | > 1000 |  |  |  |  |  |  |  | > 80
7 | CCCCCCCC(=O)OCOC(=O)c1cn2c3c(c(N4CCN(C)CC4)c(F)cc3c1=O)OC[C@@H]2C | > 90 | 289 | 230 | 209 | 238 |  |  | 243 |  |  |  |  |  |  |  | > 80
8 | CCCCCC(=O)OCOC(=O)c1cn2c3c(c(N4CCN(C)CC4)c(F)cc3c1=O)OC[C@@H]2C |  | 235 | 207 | 162 | 183 |  |  | 199 |  |  |  |  |  |  |  | > 80
9 | CCCCCCCCCCCCCCCNC(=O)c1cn2c3c(c(N4CCN(C)CC4)c(F)cc3c1=O)OC[C@@H]2C |  | 8 | 5 | 6 | 15 |  |  | 7 |  |  |  |  |  |  |  | 
10 | CCCCCCCCNC(=O)c1cn2c3c(c(N4CCN(C)CC4)c(F)cc3c1=O)OC[C@@H]2C | 100 | 2.2 | 1.5 | 0.8 | 2.1 |  |  | 2.3 |  |  | Dose-dependent effect | Dose-dependent effect | Dose-dependent effect | Dose-dependent effect | Dose-dependent effect | 

Second part, led by results:

Row | remaining at 168 h [1] [%] | IC50 [3] [µM] | IC50 [4] [µM] | IC50 [5] [µM] | IC50 [6] [µM] | IC50 [15] [µM] | IC50 [16] [µM] | SMILES | IC50 [2] [µM] | Activity [7] | Activity [8] | Activity [9] | Activity [10] | Activity [11] | Activity [12] | Activity [13] | MTD at 672 h [14] [mg/kg]
11 | > 98 | 5 | 3 | 3 | 5 |  |  | CCCCCCCCCCCCCCNC(=O)c1cn2c3c(c(N4CCN(C)CC4)c(F)cc3c1=O)OC[C@@H]2C | 3 |  |  |  |  |  |  |  | 
12 |  | 593 | 100 | 4 | 12 |  |  | CCCCCCCCCCCCCCCCCC(=O)OCOC(=O)c1cn2c3c(c(N4CCN(C)CC4)c(F)cc3c1=O)OC[C@@H]2C | 0.9 | inactive | inactive |  |  |  |  |  | 
13 |  | 3 | 4 | 1 | 5 |  |  | CCCCCCCNC(=O)c1cn2c3c(c(N4CCN(C)CC4)c(F)cc3c1=O)OC[C@@H]2C | 3 |  |  |  |  |  |  |  | 
14 |  |  |  |  |  | > 10 | > 10 | C[C@H]1COc2c(N3CCN(C)CC3)c(F)cc3c(=O)c(-c4nc5ccc([N+](=O)[O-])cc5s4)cn1c23 |  |  |  |  |  |  |  |  | 
15 | > 92 | 3 | 31 | 5 | 35 |  |  | CCCC(=O)OCOC(=O)c1cn2c3c(c(N4CCN(C)CC4)c(F)cc3c1=O)OC[C@@H]2C | 40 |  |  |  |  |  |  |  | 
16 |  | 617 | 71 | 21 | 6 |  |  | CCCCCCCCCCCCCC(=O)OCOC(=O)c1cn2c3c(c(N4CCN(C)CC4)c(F)cc3c1=O)OC[C@@H]2C | 8 |  |  |  |  |  |  |  | 
17 |  | 5 | 5 | 3 | 10 |  |  | CCCCCCCCCCCCNC(=O)c1cn2c3c(c(N4CCN(C)CC4)c(F)cc3c1=O)OC[C@@H]2C | 5 |  |  |  |  |  |  |  | 
18 | 100 | 6 | 12 | 5 | 16 |  |  | CCCCCCNC(=O)c1cn2c3c(c(N4CCN(C)CC4)c(F)cc3c1=O)OC[C@@H]2C | 4 |  |  |  |  |  |  |  | 
19 |  |  |  |  | 2.9 |  |  | CO/N=C(/CN1CCN(c2cc3c(cc2F)c(=O)c(C(=O)O)cn3C2CC2)CC1)c1ccc(Cl)s1 |  |  |  |  |  |  |  |  | 
